Laboratory results: patent US11576901B2, “Methods for treating viral infection” (HOWARD UNIVERSITY, priority 2016, dated 2023)

How the values were obtained:
Assay type in all cases: cell-based
[1] = tested on: HIV1 modified pNL4-3.Luc.R-E-virus; assay: Luciferase luminescence of CEM T cells infected with HIV1 modified pNL4-3.Luc.R-E-virus; design: dose or concentration left out as unconfirmed; conditions: CEM T cells pretreated before infection; vs untreated and DMSO; FIG. 2
Source text: The expression of the protein assessed may be native, i.e. naturally occurring within the genome of the virus to be treated. In combination or the alternative, expression of a protein introduced to the viral genome may be assessed. Assessing the expression of an introduced protein may enable an assessment of viral proliferation by means not normally permitted by the native viral genome. For example, proliferation of the HIV1 virus can be assessed using luminescence with the HIV1 modified pNL4-3.Luc.R-E-virus. […] Accordingly, proliferation of the HIV1 modified pNL4-3.Luc.R-E-virus will entail production of the luciferase protein. […]
Accordingly, compounds in accordance with General Formula 1, including derivatives in accordance with General Formulae 1-1 to 1-20, or pharmaceutically acceptable salts thereof, can be assessed for the ability to inhibit proliferation of the HIV1 by infecting CEM T cells with the HIV1 modified pNL4-3.Luc.R-E-virus. […]
Prior to infection with the HIV1 modified pNL4-3.Luc.R-E-virus, the CEM T cells were pretreated with either SD-29 or DMSO ([…]) or left untreated. […] To assess luminescence, 100 μL of the cell suspension and […] of reconstituted luciferase buffer (Luclite Kit, Perkin Elmer) were added to wells and allowed to incubate for 10 minutes. […]

HSV-1 [2] = assay: Western assay of IE, DE and L HSV-1 proteins (ICP0, ICP8, gD) in infected Hep-2 cells; conditions: 100 μM, 24 hours pretreatment, HSV-1 0.01 to 1.25 MOI, twenty hours after infection, FIG. 6
Source text: Compounds in accordance with General Formula 1, including derivatives in accordance with any of General Formulae 1-1 to 1-20, can be evaluated for the capacity to inhibit triggered expression of at least a portion of a virus genome containing an IRES sequence by administering the compound, or a pharmaceutically acceptable salt of the compound, to a cell culture and exposing the cell culture to a HSV-1 infection. After a sufficient amount of time, the culture can be examined to determine the expression of IE, DE and L genes. If the amount of at least one protein corresponding to an IE gene and at least one protein corresponding to a DE and/or L gene within the viral genome is diminished compared to that within an identical infected cell culture not treated with the compound or its salt, then the compound would be capable of inhibiting triggered expression of at least a portion of the viral genome. […]
Compounds in accordance with General Formula 1, including derivatives in accordance with any of General Formulae 1-1 to 1-20, or pharmaceutically acceptable salts thereof, can be assessed for the ability to inhibit triggered expression of at least a portion of the HSV-1 genome by infecting Hep-2 cells with the HSV-1 virus. […]

HSV-1 [3] = assay: qPCR of ICP-0 mRNA in HSV-1 infected Hep-2 cells; conditions: 100 μM, 24 hours pretreatment, 0, 6, 12 and 24 hours after infection, vs DMSO, FIG. 8
Source text: The inhibition of triggered expression of at least a portion of the HSV-1 genome and the inhibited proliferation of HSV-1, which may be the result of the former, indicate that compounds in accordance with General Formula 1, including derivatives in accordance with any of General Formulae 1-1 to 1-20, can treat viral infections. The treatment provided by compounds in accordance with General Formula 1, including derivatives in accordance with any of General Formulae 1-1 to 1-20, may be the result of either inhibition of transcription of viral mRNAs containing an IRES or the inhibited expression of viral proteins encoded by such within the IRES reading frame of such an mRNA. Determining whether mRNA transcription or protein expression is being inhibited can be accomplished by assessing the amount of mRNA containing an IRES is diminished by treatment with a compound in accordance with General Formula 1, including derivatives in accordance with any of General Formulae 1-1 to 1-20. FIG. 8 reports the amount of mRNA of the IE gene ICP-0 detected in Hep-2 cells following treatment with SD-29.
Hep-2 cells were pretreated with either DSMO as a control, 100 μM SD-29 or 100 μM SD29-12. After 24 hours of pretreatment, the Hep-2 cells were infected with HSV-1. At 0, 6, 12 and 24 hours after infection, the total RNA within the cells was isolated. […]

RACK-1 = target: T1, RACK-1 (Homo sapiens, UniProt P63244); assay: Western assay of RACK-1 expression in HSV-1 infected Hep-2 cells; conditions: 100 μM, 24 hours pretreatment, twenty hours after infection, FIG. 6
T1 construct: endogenous in cells; host or cells: Hep-2 cells infected with HSV-1
Experimental: FIG. 6 is a Western assay showing expression of RACK-1, the IE protein ICP0, DE protein ICP8 and the L protein gD following infection of Hep-2 cells at varying multiplicity of infection (MOI) of HSV-1. In FIG. 6, ICP0 designates immediate early viral protein, ICP8 designates early viral protein, and dD designates late viral protein. Tubulin was used as a sample loading control. Prior to infection, Hep-2 cells were treated with DSMO as a control, 100 μM SD-29 or 100 μM SD29-12. After 24 hours of pretreatment, the Hep-2 cells were infected with HSV-1 at either 0.01, 0.05, 0.25 or 1.25 MOI (from 0.01 to 1.25). Twenty hours after infection, whole cell lysate samples were obtained and the Western assay shown in FIG. 6 was performed to examine protein levels.

For `Nn1c(S)nnc1-c1ccc(F)cc1` [SD-29], the “luminescence / proliferation of the HIV1 modified pNL4-3.Luc.R-E-virus” value [1] was “significantly reduced proliferation”, the “expression of IE, DE and L HSV-1 proteins (triggered expression)” value (HSV-1 [2]) was “significantly inhibited triggered expression” and the “ICP-0 mRNA level / transcription of IE genes” value (HSV-1 [3]) was “does not inhibit transcription of mRNA corresponding to IE genes”. The “expression of RACK-1” value (RACK-1) was “reduced expression of RACK-1”.
